Assay results published in patent publication US20110166176A1, “COMPOUNDS AND COMPOSITIONS AS MODULATORS OF GPR119 ACTIVITY” (IRM LLC, priority 2008, published 2011).

Target: T1, human GPR119 (Homo sapiens, UniProt Q8TDV5)
T1 construct: expressed in transfected cells
T1 sequence (Q8TDV5 1-335): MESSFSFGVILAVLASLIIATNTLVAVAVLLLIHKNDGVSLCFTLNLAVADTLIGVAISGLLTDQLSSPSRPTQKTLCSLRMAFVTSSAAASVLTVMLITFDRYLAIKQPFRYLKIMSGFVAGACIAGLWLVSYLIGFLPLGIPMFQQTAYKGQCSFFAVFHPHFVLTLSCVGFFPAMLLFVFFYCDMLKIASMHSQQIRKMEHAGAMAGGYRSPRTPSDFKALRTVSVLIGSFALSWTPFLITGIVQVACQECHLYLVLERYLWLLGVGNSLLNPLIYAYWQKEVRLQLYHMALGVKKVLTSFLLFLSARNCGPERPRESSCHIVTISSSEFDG
Test: Cyclic AMP assay (HTRF) in stable Flp-In-CHO-hGPR119 cell line
Format: cell-based
Settings: Flp-In-CHO-hGPR119 cells, intracellular cAMP, 30 minutes at 37° C., 1 mM IBMX, read-out: CHO-GPR119-HTRF (3158) EC50
Procedure: Flp-In-CHO cells (Invitrogen, Cat. # R758-07) are maintained in Ham's F12 medium supplemented with 10% fetal bovine serum, 1% antibiotic mixture and 2 mM L-glutamine. The cells are transfected with a DNA mixture containing human GPR119 in pcDNA5/FRT vector and the pOG44 vector (1:9) using Fugene6 (Roche), according to the manufacturer's instruction. After 48 hours, the medium is changed to medium supplemented with 400 μg/ml hygromycin B to initiate the selection of stably transfected cells.
To test the activity of compounds of the invention, Flp-In-CHO-hGPR119 cells are harvested and resuspended in DMEM plus 3% lipid-depleted fetal bovine serum. Forth μl of cells are plated in 384 well plates at a density of 15,000 cells/well. IBMX (3-isobutyl-1-methyl-xanthine) is added to the cells to a final concentration of 1 mM, followed by the addition of 500 nl of the compound to be tested. The cells are incubated at 37° C. for 30 minutes. Equal volume (20 μl) of the HTRF reagents, anti-cAMP-Cryptate and cAMP-XL665, are added to the cells. The plates are incubated at room temperature for 1 hour and read on a HTRF reader according to the manufacturer's instruction.
Compounds of Formula I, in free form or in pharmaceutically acceptable salt form, produced a concentration-dependent increase in intracellular cAMP level. […] Specific EC50 data is presented for some of the compounds of the invention in the table, infra.

Row | Compound | EC50
1 | CC(C)OC(=O)N1CCc2cc(O[C@H]3CCN(c4ccc(S(C)(=O)=O)cc4)C3)ccc2C1 [Example 1, (S)-isopropyl 6-(1-(4-(methylsulfonyl)phenyl)pyrrolidin-3-yloxy)-3,4-dihydroisoquinoline-2(1H)-carboxylate] | 85 nM
2 | CC(C)OC(=O)N1CCc2cc(CO[C@H]3CCN(c4ccc(S(C)(=O)=O)cc4)C3)ccc2C1 [Example 3, (S)-isopropyl 6-((1-(4-(methylsulfonyl)phenyl)pyrrolidin-3-yloxy)methyl)-3,4-dihydroisoquinoline-2(1H)-carboxylate] | 202 nM
3 | CCN(Cc1ccccc1)Cc1cccc(O[C@H]2CCN(c3ccc(S(C)(=O)=O)cc3)C2)c1 [Example 7] | 423 nM
4 | CS(=O)(=O)c1ccc(N2CC[C@H](Oc3cccc(CNCc4ccccc4)c3)C2)c(F)c1 [Example 9] | 2620 nM
5 | CN(Cc1ccccc1)Cc1cccc(O[C@H]2CCN(c3ccc(S(C)(=O)=O)cc3F)C2)c1 [Example 10] | 259 nM
6 | CCN(Cc1ccccc1)Cc1cccc(O[C@H]2CCN(c3ccc(S(C)(=O)=O)cc3F)C2)c1 [Example 11] | 356 nM
7 | CC(C)N(Cc1ccccc1)Cc1cccc(O[C@H]2CCN(c3ccc(S(C)(=O)=O)cc3F)C2)c1 [Example 12] | 33 nM
8 | CC(C)OC(=O)N(C)Cc1cccc(O[C@H]2CCN(c3ccc(S(C)(=O)=O)cc3)C2)c1 [Example 17] | 263 nM
9 | CC(C)OC(=O)OCc1cccc(O[C@H]2CCN(c3ccc(S(C)(=O)=O)cc3F)C2)c1 [Example 18, (S)-3-(1-(2-fluoro-4-(methylsulfonyl)phenyl)pyrrolidin-3-yloxy)benzyl isopropyl carbonate] | 794 nM

Now from value to compound:

Row | EC50 | Compound
10 | 42 nM | CC(C)OC(=O)N1CCc2cc(O[C@H]3CCN(c4ccc(S(C)(=O)=O)cc4F)C3)ccc2C1 [Example 2, (S)-isopropyl 6-(1-(2-fluoro-4-(methylsulfonyl)phenyl)pyrrolidin-3-yloxy)-3,4-dihydroisoquinoline-2(1H)-carboxylate]
11 | 424 nM | CC(C)OC(=O)N1CCc2ccc(CO[C@H]3CCN(c4ccc(S(C)(=O)=O)cc4)C3)cc2C1 [Example 4, (S)-isopropyl 7-((1-(4-(methylsulfonyl)phenyl)pyrrolidin-3-yloxy)methyl)-3,4-dihydroisoquinoline-2(1H)-carboxylate]
12 | 353 nM | CNCc1ccc(O[C@H]2CCN(c3ccc(S(C)(=O)=O)cc3)C2)cc1 [Example 5, (S)—N-methyl-1-(4-(1-(4-(methylsulfonyl)phenyl)pyrrolidin-3-yloxy)phenyl)methanamine]
13 | 319 nM | CNCc1cccc(O[C@H]2CCN(c3ccc(S(C)(=O)=O)cc3)C2)c1 [Example 6, (S)—N-methyl-1-(3-(1-(4-(methylsulfonyl)phenyl)pyrrolidin-3-yloxy)phenyl)methanamine]
14 | 586 nM | CC(C)N(Cc1ccccc1)Cc1cccc(O[C@H]2CCN(c3ccc(S(C)(=O)=O)cc3)C2)c1 [Example 8]
15 | 730 nM | CCCN(Cc1ccccc1)Cc1cccc(O[C@H]2CCN(c3ccc(S(C)(=O)=O)cc3F)C2)c1 [Example 13]
16 | 82 nM | CCN(Cc1cccc(O[C@H]2CCN(c3ccc(S(C)(=O)=O)cc3)C2)c1)C(=O)OC(C)C [Example 14, (S)-Isopropyl ethyl(3-(1-(4-(methylsulfonyl)phenyl)pyrrolidin-3-yloxy)benzyl)carbamate]
17 | 397 nM | CCCN(Cc1cccc(O[C@H]2CCN(c3ccc(S(C)(=O)=O)cc3)C2)c1)C(=O)OC(C)C [Example 15]
18 | 199 nM | CC(C)OC(=O)N(Cc1cccc(O[C@H]2CCN(c3ccc(S(C)(=O)=O)cc3)C2)c1)C(C)C [Example 16]
19 | 1020 nM | CC(C)OC(=O)OCc1ccc(O[C@@H]2CCN(c3ccc(S(C)(=O)=O)cc3F)C2)cc1 [Example 19]
20 | 515 nM | CC(C)OC(=O)OCCc1cccc(O[C@@H]2CCN(c3ccc(S(C)(=O)=O)cc3F)C2)c1 [Example 20]
